Reference: the NIST ThermoML archive (doi:10.1021/acs.jced.5b01023)

Test: xn = mol fraction of the nth substance listed
Conditions: for surface tension liquid-gas: Wilhelmy plates; for viscosity / mass density: 101 kPa, Liquid; for viscosity: Capillary tube (Ostwald / Ubbelohde) method; for mass density: Vibrating tube method

CC(=O)[O-].CCn1cc[n+](C)c1 [1-ethyl-3-methylimidazolium acetate] + CC(C)O
Conditions	mass density [kg/m3]	surface tension liquid-gas [mN/m]	viscosity [mPa·s]
288.15 K, x1 = 0.1	852.68	23.6	5.55
288.15 K, x1 = 0.2	901.6	25.5	8.842
288.15 K, x1 = 0.3	941.78	27.5	14.85
288.15 K, x1 = 0.4	976.37	29.4	24.85
288.15 K, x1 = 0.5	1006.01	31.5	40.69
288.15 K, x1 = 0.5997	–	33	–
288.15 K, x1 = 0.5998	1031.55	–	64.17
288.15 K, x1 = 0.7	1053.83	35.1	100.7
288.15 K, x1 = 0.7993	1072.97	–	147.9
288.15 K, x1 = 0.7994	–	37.7	–
288.15 K, x1 = 0.9	1090.17	41.2	212.4
288.15 K, x1 = 1	1105.2	47.7	283.8
298.15 K, x1 = 0.1	845.22	23.2	4.171
298.15 K, x1 = 0.2	894.12	25.1	6.64
298.15 K, x1 = 0.3	934.95	26.9	10.84
298.15 K, x1 = 0.4	969.7	29	17.31
298.15 K, x1 = 0.5	999.47	31.2	26.86
298.15 K, x1 = 0.5997	–	32.6	–
298.15 K, x1 = 0.5998	1025.12	–	40.4
298.15 K, x1 = 0.7	1047.51	34.5	58.42
298.15 K, x1 = 0.7993	1066.77	–	81.31
298.15 K, x1 = 0.7994	–	37.4	–
298.15 K, x1 = 0.9	1084.05	40.9	109.9
298.15 K, x1 = 1	1099.03	47.1	139
308.15 K, x1 = 0.1	837.68	22.5	3.204
308.15 K, x1 = 0.2	887.04	24.6	5.142
308.15 K, x1 = 0.3	928.14	26.6	8.186
308.15 K, x1 = 0.4	963.07	28.3	12.6
308.15 K, x1 = 0.5	992.98	30.5	18.61
308.15 K, x1 = 0.5997	–	32.1	–
308.15 K, x1 = 0.5998	1018.74	–	26.86
308.15 K, x1 = 0.7	1041.21	34.1	36.9
308.15 K, x1 = 0.7993	1060.56	–	49.32
308.15 K, x1 = 0.7994	–	37	–
308.15 K, x1 = 0.9	1077.92	40.5	63.37
308.15 K, x1 = 1	1092.93	46.6	77.32
318.15 K, x1 = 0.1	829.99	21.8	2.511
318.15 K, x1 = 0.2	879.94	24.1	4.067
318.15 K, x1 = 0.3	921.35	26.1	6.344
318.15 K, x1 = 0.4	956.47	27.9	9.506
318.15 K, x1 = 0.5	986.52	29.9	13.61
318.15 K, x1 = 0.5997	–	31.6	–
318.15 K, x1 = 0.5998	1012.39	–	18.87
318.15 K, x1 = 0.7	1034.96	33.7	25.08
318.15 K, x1 = 0.7993	1054.38	–	32.33
318.15 K, x1 = 0.7994	–	36.8	–
318.15 K, x1 = 0.9	1071.81	40.2	40.36
318.15 K, x1 = 1	1086.86	46.1	47.37
328.15 K, x1 = 0.1	822.14	20.8	1.998
328.15 K, x1 = 0.2	872.8	23.5	3.272
328.15 K, x1 = 0.3	914.57	25.5	5.049
328.15 K, x1 = 0.4	949.91	27.4	7.378
328.15 K, x1 = 0.5	980.11	29.6	10.28
328.15 K, x1 = 0.5997	–	31.5	–
328.15 K, x1 = 0.5998	1006.1	–	13.77
328.15 K, x1 = 0.7	1028.76	33.4	17.83
328.15 K, x1 = 0.7993	1048.25	–	22.39
328.15 K, x1 = 0.7994	–	36.4	–
328.15 K, x1 = 0.9	1065.74	40	27.23
328.15 K, x1 = 1	1080.82	45.9	31.29
338.15 K, x1 = 0.1	814.08	20.1	1.617
338.15 K, x1 = 0.2	865.6	22.6	2.683
338.15 K, x1 = 0.3	907.78	25	4.086
338.15 K, x1 = 0.4	943.37	26.9	5.876
338.15 K, x1 = 0.5	973.74	29.1	8.019
338.15 K, x1 = 0.5997	–	30.7	–
338.15 K, x1 = 0.5998	999.84	–	10.46
338.15 K, x1 = 0.7	1022.6	32.9	13.23
338.15 K, x1 = 0.7993	1042.17	–	16.22
338.15 K, x1 = 0.7994	–	36	–
338.15 K, x1 = 0.9	1059.72	39.3	19.37
338.15 K, x1 = 1	1074.83	45.4	21.85
